Results taken from US20250388593A1 (MITSUBISHI TANABE PHARMA CORPORATION, priority 2023, published 2025).

The compounds below were run against CRBN truncate (318-426) (Homo sapiens (Human), UniProt Q96SW2) (assay: Measurement of molecular interactions using surface plasmon resonance (SPR), Biacore T200). Conditions: 25° C., immobilized CRBN truncate, upper limit of measurement 200 μM.
Format: binding
Method in brief: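 C-terminally Avi-tagged CRBN (318-426) captured on a streptavidin SA chip on a Biacore T200. Running buffer 10 mM HEPES pH 7.5, 150 mM NaCl, 1 mM TCEP, 0.005% Tween 20, 2% DMSO; 60 s contact, 120 s dissociation.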

Sequence of CRBN truncate (318-426) (Q96SW2 318-426): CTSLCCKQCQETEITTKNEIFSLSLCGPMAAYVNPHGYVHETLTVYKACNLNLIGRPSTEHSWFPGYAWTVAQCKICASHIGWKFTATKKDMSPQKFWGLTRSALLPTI

| Kd | SMILES |
| --- | --- |
| 50 to 100 µM | CC(C)(C)OC(=O)NCCCCCCCCn1ccc2c(N3CCC4(CCCC(=O)NC4=O)C3)ncnc21 (stereo not drawn) [Example 186, tert-Butyl N-[8-[4-(6,8-dioxo-2,7-diazaspiro[4.6]undecan-2-yl)pyrrolo[2,3-d]pyrimidin-7-yl]octyl]carbamate] |
| 50 to 100 µM | COc1ccc2nc(N3CCC4(CCCC(=O)NC4=O)C3)sc2c1 (stereo not drawn) [Example 187, 2-(6-Methoxy-1,3-benzothiazol-2-yl)-2,7-diazaspiro[4.6]undecane-6,8-dione] |
| ≥ 100 µM | COc1ccc2sc(N3CCC4(CCCC(=O)NC4=O)C3)nc2c1 (stereo not drawn) [Example 188, 2-(5-Methoxy-1,3-benzothiazol-2-yl)-2,7-diazaspiro[4.6]undecane-6,8-dione] |
| ≥ 100 µM | COc1cccc2sc(N3CCC4(CCCC(=O)NC4=O)C3)nc12 (stereo not drawn) [Example 189, 2-(4-Methoxy-1,3-benzothiazol-2-yl)-2,7-diazaspiro[4.6]undecane-6,8-dione] |
| ≥ 100 µM | CC(C)(C)OC(=O)N1CCc2c(ncnc2N2CCC3(CCCC(=O)NC3=O)C2)C1 (stereo not drawn) [Example 190, tert-Butyl 4-(6,8-dioxo-2,7-diazaspiro[4.6]undecan-2-yl)-6,8-dihydro-5H-pyrido[3,4-d]pyrimidine-7-carboxylate] |
| ≥ 100 µM | N#Cc1ccccc1N1CCC2(CCCC(=O)NC2=O)C1 (stereo not drawn) [Example 191] |
| < 50 µM | CC(C)(C)OC(=O)CCCCCCCn1c(=O)n(C2CCCC(=O)NC2=O)c2ccccc21 (stereo not drawn) [Example 195, tert-Butyl 8-[3-(2,7-dioxoazepan-3-yl)-2-oxobenzimidazol-1-yl]octanoate] |
| < 50 µM | CC(C)(C)OC(=O)NCCCn1c(=O)n(C2CCCC(=O)NC2=O)c2ccccc21 (stereo not drawn) [Example 196, tert-Butyl N-[3-[3-(2,7-dioxoazepan-3-yl)-2-oxobenzimidazol-1-yl]propyl]carbamate] |
| ≥ 100 µM | CC(C)(C)OC(=O)NCCn1c(=O)n(C2CCCC(=O)NC2=O)c2ccccc21 (stereo not drawn) [Example 197, tert-Butyl N-[2-[3-(2,7-dioxoazepan-3-yl)-2-oxobenzimidazol-1-yl]ethyl]carbamate] |
| < 50 µM | CC(C)(C)OC(=O)NCCCCCCCn1c(=O)n(C2CCCC(=O)NC2=O)c2ccccc21 (stereo not drawn) [Example 198, tert-Butyl N-[7-[3-(2,7-dioxoazepan-3-yl)-2-oxobenzimidazol-1-yl]heptyl] carbamate] |
| ≥ 100 µM | CC(C)(C)OC(=O)NCCOCCOCCn1c(=O)n(C2CCCC(=O)NC2=O)c2ccccc21 (stereo not drawn) [Example 199, tert-Butyl N-[2-[2-[2-[3-(2,7-dioxoazepan-3-yl)-2-oxobenzimidazol-1-yl]ethoxy]ethoxy]ethyl]carbamate] |
| ≥ 100 µM | CC(C)(C)OC(=O)NCCCCCCCn1c(=O)n(C2CCCC(=O)NC2=O)c2ncccc21 (stereo not drawn) [Example 201-2] |
| ≥ 100 µM | Cc1ccc(NC(=O)NCCCn2c(=O)n(C3CCCC(=O)NC3=O)c3ccccc32)cc1Cl (stereo not drawn) [Example 202, 1-(3-Chloro-4-methylphenyl)-3-[3-[3-(2,7-dioxoazepan-3-yl)-2-oxobenzimidazol-1-yl]propyl]urea] |
| < 50 µM | Cn1c(=O)n(C2CCCC(=O)NC2=O)c2cccc(C#CCCCCCC(=O)OC(C)(C)C)c21 (stereo not drawn) [Example 206, tert-Butyl 8-[1-(2,7-dioxoazepan-3-yl)-3-methyl-2-oxobenzimidazol-4-yl]oct-7-ynoate] |
| ≥ 100 µM | O=C(O)CCCCCCCc1nn(C2CCCC(=O)NC2=O)c2ccccc12 (stereo not drawn) [Example 209, 8-[1-(2,7-Dioxoazepan-3-yl)indazol-3-yl]octanoic acid] |
| 50 to 100 µM | Cn1c(=O)n(C2CCCC(=O)NC2=O)c2cccc(I)c21 (stereo not drawn) [Example 210, 3-(4-Iodo-3-methyl-2-oxobenzimidazol-1-yl) azepane-2,7-dione] |
| 50 to 100 µM | Cn1c(=O)n(C2CCCC(=O)NC2=O)c2cccc(CCCCC(=O)OC(C)(C)C)c21 (stereo not drawn) [Example 214, tert-Butyl 5-[1-(2,7-dioxoazepan-3-yl)-3-methyl-2-oxobenzimidazol-4-yl]pentanoate] |
| 50 to 100 µM | Cn1c(=O)n(C2CCCC(=O)NC2=O)c2ccc(C3CCN(C(=O)OC(C)(C)C)CC3)cc21 (stereo not drawn) [Example 218, tert-Butyl 4-[1-(2,7-dioxoazepan-3-yl)-3-methyl-2-oxobenzimidazol-5-yl]piperidine-1-carboxylate] |
| < 50 µM | Cn1c(=O)n(C2CCCC(=O)NC2=O)c2ccc(C3CCN(CC(=O)OC(C)(C)C)CC3)cc21 (stereo not drawn) [Example 219, tert-Butyl 2-[4-[1-(2,7-dioxoazepan-3-yl)-3-methyl-2-oxobenzimidazol-5-yl]piperidin-1-yl]acetate] |

| Kd | SMILES |
| --- | --- |
| 50 to 100 µM | Cn1c(=O)n(C2CCCC(=O)NC2=O)c2cccc(C3=CCN(C(=O)OC(C)(C)C)CC3)c21 (stereo not drawn) [Example 220, tert-Butyl 4-[1-(2,7-dioxoazepan-3-yl)-3-methyl-2-oxobenzimidazol-4-yl]-3,6-dihydro-2H-pyridine-1-carboxylate] |
| 50 to 100 µM | Cn1c(=O)n(C2CCCC(=O)NC2=O)c2cccc(-c3ccncc3)c21 (stereo not drawn) [Example 221, 3-[3-Methyl-2-oxo-4-(4-pyridyl)benzimidazol-1-yl]azepane-2,7-dione] |
| < 50 µM | CC(C)(C)OC(=O)c1ccc(N2CC[C@]3(CCCC(=O)NC3=O)CC2=O)cc1 [Example 223, tert-Butyl 4-(4,7,9-trioxo-3,8-diazaspiro [5.6]dodecan-3-yl) benzoate] |
| ≥ 100 µM | CC(C)(C)OC(=O)c1ccc(N2CC[C@@]3(CCCC(=O)NC3=O)CC2=O)cc1 [Example 224, tert-Butyl 4-(4,7,9-trioxo-3,8-diazaspiro [5.6]dodecan-3-yl) benzoate] |
| ≥ 100 µM | O=C1CCCC2(CCN(c3ccc([N+](=O)[O-])cc3)C(=O)C2)C(=O)N1 (stereo not drawn) [Example 225, 3-(4-Nitrophenyl)-3,8-diazaspiro [5.6]dodecane-4,7,9-trione] |
| ≥ 100 µM | CC(C)(C)OC(=O)CCCCCN1CC2(CC(=O)N(C3CCC(=O)NC3=O)C2=O)C1 (stereo not drawn) [Example 229, tert-Butyl 6-[6-(2,6-dioxopiperidin-3-yl)-5,7-dioxo-2,6-diazaspiro[3.4]octan-2-yl]hexanoate] |
| ≥ 100 µM | Nc1nccc(N2CC3(CC(=O)N(C4CCC(=O)NC4=O)C3=O)C2)n1 (stereo not drawn) [Example 230, 2-(2-Aminopyrimidin-4-yl)-6-(2,6-dioxopiperidin-3-yl)-2,6-diazaspiro[3.4]octane-5,7-dione] |
| < 50 µM | CC(C)(C)OC(=O)c1ccc2nc(N3CC4(CC(=O)N(C5CCC(=O)NC5=O)C4=O)C3)sc2c1 (stereo not drawn) [Example 231, tert-Butyl 2-[6-(2,6-dioxopiperidin-3-yl)-5,7-dioxo-2,6-diazaspiro[3.4]octan-2-yl]-1,3-benzothiazole-6-carboxylate] |
| 50 to 100 µM | O=C1CCC(N2C(=O)CC3(CN(c4ccc([N+](=O)[O-])cc4)C3)C2=O)C(=O)N1 (stereo not drawn) [Example 232, 6-(2,6-Dioxopiperidin-3-yl)-2-(4-nitrophenyl)-2,6-diazaspiro[3.4]octane-5,7-dione] |
| ≥ 100 µM | CC(C)(C)OC(=O)NCCCNc1nccc(N2CC3(CC(=O)N(C4CCC(=O)NC4=O)C3=O)C2)n1 (stereo not drawn) [Example 233] |
| ≥ 100 µM | CC(C)(C)OC(=O)COc1cnc(N2CC3(CC(=O)N(C4CCC(=O)NC4=O)C3=O)C2)nc1 (stereo not drawn) [Example 234] |
| ≥ 100 µM | Cn1ccc2c(N3CC4(CC(=O)N(C5CCC(=O)NC5=O)C4=O)C3)ncnc21 (stereo not drawn) [Example 235, 6-(2,6-Dioxopiperidin-3-yl)-2-(7-methylpyrrolo[2,3-d]pyrimidin-4-yl)-2,6-diazaspiro[3.4]octane-5,7-dione] |
| < 50 µM | CC(C)(C)OC(=O)NCCCCCCCCn1ccc2c(N3CC4(CC(=O)N(C5CCC(=O)NC5=O)C4=O)C3)ncnc21 (stereo not drawn) [Example 236, tert-Butyl N-[8-[4-[6-(2,6-dioxopiperidin-3-yl)-5,7-dioxo-2,6-diazaspiro[3.4]octan-2-yl]pyrrolo[2,3-d]pyrimidin-7-yl]octyl]carbamate] |
| ≥ 100 µM | CC(C)(C)OC(=O)N1CCC(Oc2ccc(CN3CC4(CC(=O)N(C5CCC(=O)NC5=O)C4=O)C3)cc2)CC1 (stereo not drawn) [Example 237, tert-Butyl 4-[4-[[6-(2,6-dioxopiperidin-3-yl)-5,7-dioxo-2,6-diazaspiro[3.4]octan-2-yl]methyl]phenoxy]piperidine-1-carboxylate] |
| < 50 µM | COc1ccc2nc(N3CC4(CC(=O)N(C5CCC(=O)NC5=O)C4=O)C3)sc2c1 (stereo not drawn) [Example 238, 6-(2,6-Dioxopiperidin-3-yl)-2-(6-methoxy-1,3-benzothiazol-2-yl)-2,6-diazaspiro[3.4]octane-5,7-dione] |
| < 50 µM | COc1ccc2sc(N3CC4(CC(=O)N(C5CCC(=O)NC5=O)C4=O)C3)nc2c1 (stereo not drawn) [Example 239, 6-(2,6-Dioxopiperidin-3-yl)-2-(5-methoxy-1,3-benzothiazol-2-yl)-2,6-diazaspiro[3.4]octane-5,7-dione] |
| ≥ 100 µM | COc1cccc2sc(N3CC4(CC(=O)N(C5CCC(=O)NC5=O)C4=O)C3)nc12 (stereo not drawn) [Example 240, 6-(2,6-Dioxopiperidin-3-yl)-2-(4-methoxy-1,3-benzothiazol-2-yl)-2,6-diazaspiro[3.4]octane-5,7-dione] |
| ≥ 100 µM | CC(C)(C)OC(=O)NCCCCCOc1ccc2nc(N3CC4(CC(=O)N(C5CCC(=O)NC5=O)C4=O)C3)sc2c1 (stereo not drawn) [Example 241, tert-Butyl N-[5-[[2-[6-(2,6-dioxopiperidin-3-yl)-5,7-dioxo-2,6-diazaspiro[3.4]octan-2-yl]-1,3-benzothiazol-6-yl]oxy]pentyl]carbamate] |
| ≥ 100 µM | CC(C)(C)OC(=O)N1CCc2c(ncnc2N2CC3(CC(=O)N(C4CCC(=O)NC4=O)C3=O)C2)C1 (stereo not drawn) [Example 242, tert-Butyl 4-[6-(2,6-dioxo-3-piperidyl)-5,7-dioxo-2,6-diazaspiro[3.4]octan-2-yl]-6,8-dihydro-5H-pyrido[3,4-d]pyrimidine-7-carboxylate] |

| SMILES | Kd |
| --- | --- |
| Cn1c(=O)n(C2CCCC(=O)NC2=O)c2cccc(C3=CCN(CC(=O)OC(C)(C)C)CC3)c21 (stereo not drawn) [Example 222, tert-Butyl 2-[4-[1-(2,7-dioxoazepan-3-yl)-3-methyl-2-oxobenzimidazol-4-yl]-3,6-dihydro-2H-pyridin-1-yl]acetate] | 50 to 100 µM |
